From US12071434B2, “Heterocyclic compound” (Takeda Pharmaceutical Company Limited, priority 2018, dated 2024)

What was measured:
[1] = biological target: T1, human orexin type 2 receptor (Homo sapiens, UniProt O43614); assay: Measurement of orexin type 2 receptor agonist activity (calcium fluorescence, Fluo-4 AM, FDSS) in CHO cells forcibly expressing human OX2 receptor; assay type: cell-based; conditions: test compound 3 μM, DMSO = 0%, orexin A (human) 10 nM = 100%
T1 construct: expressed in transfected cells
T1 sequence (O43614 1-444): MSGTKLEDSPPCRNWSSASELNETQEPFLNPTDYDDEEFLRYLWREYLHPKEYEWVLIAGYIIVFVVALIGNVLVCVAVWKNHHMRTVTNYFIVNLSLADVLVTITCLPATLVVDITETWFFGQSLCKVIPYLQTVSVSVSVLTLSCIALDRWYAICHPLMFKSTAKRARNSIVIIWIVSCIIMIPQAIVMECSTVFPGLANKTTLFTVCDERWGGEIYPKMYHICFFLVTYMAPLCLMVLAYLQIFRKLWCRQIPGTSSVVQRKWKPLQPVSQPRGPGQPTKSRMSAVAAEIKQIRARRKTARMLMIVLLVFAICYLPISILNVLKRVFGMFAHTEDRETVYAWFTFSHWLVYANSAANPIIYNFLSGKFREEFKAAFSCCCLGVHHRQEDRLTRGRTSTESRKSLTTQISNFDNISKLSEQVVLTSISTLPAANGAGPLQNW
How it was run: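 CHO-dhfr cells stably expressing human OX2 receptor, loaded with Fluo-4 AM plus probenecid for 30 min at 37 °C, then 30 min at room temperature. Calcium fluorescence read for about 2 min 40 s after compound addition. Activity (%) scaled between DMSO (0%) and 10 nM human orexin A (100%).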

[2] = system: mice (C57BL/6J mice); assay: Evaluation of wake-promoting effects by EEG and EMG in mice; assay type: in vivo; conditions: 30 mg/kg, p.o., at zeitgeber time 5; time spent in wakefulness for 2 h after administration; male mice
Experimental: The wake-promoting effects were evaluated by measuring the electroencephalogram (EEG) and electromyogram (EMG) in […] mice (C57BL/6Jmice, CLEA Japan Inc., Tokyo, Japan). Under pentobarbital sodium anesthesia (50 mg/kg, intraperitoneal, Somnopentyl®, Kyoritsu Seiyaku, Tokyo, Japan), […] male […] mice were surgically implanted with EEG electrode and EMG electrode. Bilateral EEG leads (Biotex, Kyoto, Japan) were stereotaxically positioned at the parietal area and secured to the cranium with stainless-steel screws in contact with the dura. Bilateral EMG leads (Biotex) were implanted into the back cervical muscles. After at least a 1-week recovery period in home cages, the […] mice were habituated to the recording chamber located in an electrically shielded soundproof room. After habituated, the cortical EEG and EMG signals were recorded using VitalRecorder® (Kissei Comtec Co., Ltd., Nagano, Japan). The signals were automatically scored in 4 sec epochs by a sleep scoring system (SleepSign®, Kissei Comtec Co., Ltd.). Test compound (30 mg/kg, Table 3X-1) dissolved in a mixed solution containing 10% DMSO, 10% Cremophor EL, 20% PEG400 and 60% H2O, or vehicle (i.e., a mixed solution containing 10% DMSO, 10% Cremophor EL, 20% PEG400 and 60% H2O) was administered orally (p.o.) to the […] mice at zeitgeber time 5 in a volume of 10 mL/kg. The EEG and EMG recordings were performed for 2 h after the compound administration. The time spent in wakefulness for 2 h after administration (% of vehicle treatment) was calculated by using SleepSign.

SMILES	0X2R agonist activity (3 μM, %) [1] [%]	Wakefulness time (% of vehicle treatment) (Mean, n = 3) [2]
CC(C)n1cnc2c(c1=O)[C@@H](Cc1cccc(-c3cc(F)cc(F)c3)c1F)[C@@H](NS(=O)(=O)C1CC1)CC2 [Example 195, N-{(5R,6S)-4-oxo-3-(propan-2-yl)-5-[(2,3′,5′-trifluoro[1,1′-biphenyl]-3-yl)methyl]-3,4,5,6,7,8-hexahydroquinazolin-6-yl}cyclopropanesulfonamide]	94	183.08 % of vehicle treatment
CC(C)n1cnc2c(c1=O)[C@@H](Cc1cccc(-c3ccccc3)c1F)[C@@H](NS(=O)(=O)C1CC1)CC2 [Example 176, N-[(5R,6S)-5-[(2-fluoro[1,1′-biphenyl]-3-yl)methyl]-4-oxo-3-(propan-2-yl)-3,4,5,6,7,8-hexahydroquinazolin-6-yl]cyclopropanesulfonamide]	93	204.27 % of vehicle treatment
CC(C)n1cnc2c(c1=O)[C@@H](Cc1cccc(-c3ccccc3)c1F)[C@@H](NS(=O)(=O)C1(F)CC1)CC2 [Example 180, 1-fluoro-N-[(5R,6S)-5-[(2-fluoro[1,1′-biphenyl]-3-yl)methyl]-4-oxo-3-(propan-2-yl)-3,4,5,6,7,8-hexahydroquinazolin-6-yl]cyclopropane-1-sulfonamide]	94	197.28 % of vehicle treatment
CC(C)n1cnc2c(c1=O)[C@@H](Cc1cccc(-c3cccc(F)c3)c1F)[C@@H](NS(=O)(=O)C1CC1)CC2 [Example 172, N-[(5R,6S)-5-[(2,3′-difluoro[1,1′-biphenyl]-3-yl)methyl]-4-oxo-3-(propan-2-yl)-3,4,5,6,7,8-hexahydroquinazolin-6-yl]cyclopropanesulfonamide]	95	201.32 % of vehicle treatment
